The test system of experiment [1] is primary human fibroblasts derived from IPF patients (LL29 cells). Briefly: Inhibition of TGF-β1-induced fibrosis (αSMA staining) in primary human fibroblasts from IPF patients. Type of experiment: cell-based. Particulars: Fibroblast, 96 h, TGF-β1 20 ng/mL, 4 days, 11-point dose-response 10 μM to 1.87 nM. The source says:
The above synthesized compounds were screened using primary human fibroblasts (derived from IPF patients) treated with TGF-β1 to determine their ability to inhibit the fibrotic process.
Primary human fibroblasts derived from IPF patients (LL29 cells) [^1Xiaoqiu Liu, et. al., “Fibrotic Lung Fibroblasts Show Blunted Inhibition by cAMP Due to Deficient cAMP Response Element-Binding Protein Phosphorylation”, Journal of Pharmacology and Experimental Therapeutics (2005), 315(2), 678-687; ^2Watts, K. L., et. al., “RhoA signaling modulates cyclin D1 expression in human lung fibroblasts; implications for idiopathic pulmonary fibrosis”, Respiratory Research (2006), 7(1), 88] were obtained from American Type Culture Collection (ATCC) and expanded in F12 medium supplemented with 15% Fetal Bovine Serum and Penicillin/Streptomycin.
Each compound was dissolved in DMSO as a 10 mM stock and used to prepare compound source plates. Serial dilution (1:2, 11-point dose-response curves from 10 μM to 1.87 nM) and compound transfer was performed using the ECHO 550 (Labcyte, Sunnyvale, Calif.) into 384-well clear bottom assay plates (Greiner Bio-One) with appropriate DMSO backfill for a final DMSO concentration of 0.1%. LL29 cells were plated at 1,500 cells/well in 80 μl/well F12 medium supplemented with 1% Fetal Bovine Serum. One hour after addition of the cells, TGF-β1 (Peprotech; 20 ng/mL) was added to the plates to induce fibrosis (ref. 1 and 2 above). Wells treated with TGF-β1 and containing DMSO were used as controls. Cells were incubated at 37° C. and 5% CO2 for 4 days. Following incubation for 4 days, SYTOX green nucleic acid stain (Life Technologies [Thermo Fisher Scientific]) was added to the wells at a final concentration of 1 uM and incubated at room temperature for 30 min. Cells were then fixed using 4% formaldehyde (Electron Microscopy Sciences), washed 3 times with PBS followed by blocking and permeabilization using 3% Bovine Serum Albumin (BSA; Sigma) and 0.3% Triton X-100 (Sigma) in PBS. Cells were then stained with antibody specific to α-smooth muscle actin (αSMA; Abcam) (ref 1 and 2 above) in 3% Bovine Serum Albumin (BSA; Sigma) and 0.3% Triton X-100 (Sigma) in PBS, and incubated overnight at 4° C. Cells were then washed 3 times with PBS, followed by incubation with Alexa Flor-647 conjugated secondary antibody (Life Technologies [Thermo Fisher Scientific]) and DAPI at room temperature for 1 hour. Cells were then washed 3 times with PBS and plates were sealed for imaging. αSMA staining was imaged by excitation at 630 nm and emission at 665 nm and quantified using the Compartmental Analysis program on the CellInsight CX5 (Thermo Scientific). Dead or apoptotic cells were excluded from analysis based on positive SYTOX green staining. % of total cells positive for αSMA were counted in each well and normalized to the average of 11 wells treated with TGF-β1 on the same plate using Dotmatics' Studies Software. The normalized averages (fold change over untreated) of 3 replicate wells for each compound concentration were used to create dose-responses curves and EC50 values were calculated using non-linear regression curve fit in the Dotmatics' Studies Software. The EC50 values are reported.

The subject of experiment [2] is Wnt activity (Sp5-Luc reporter, SW480 colon carcinoma cells). The experiment can be described thus: Sp5-Luc Wnt reporter gene assay in SW480 colon carcinoma cells. The class given is cell-based. Particulars: Homo sapiens; SW480 cells stably expressing Sp5-Luc reporter; 42 h incubation; BrightGlo luminescence normalized to DMSO. The procedure, abridged:
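IC50 values come from variable-slope four-parameter fits of luciferase signal normalized to DMSO wells. Stable Sp5-Luc reporter SW480 colon carcinoma cells were exposed to compounds in a 3-fold dilution series (source plates from 10 mM stock) for forty-two hours at 37 °C.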
Background: A reporter such as luciferase makes a cellular process visible.

The structures appear in SMILES notation.

The term EC50 denotes the concentration needed to bring the measured effect to its halfway point. As a reminder, the IC50 is the midpoint of a concentration-inhibition curve. A lower IC50 goes with higher potency. Compound `CC(C)CC(=O)Nc1cncc(-c2cnc3[nH]nc(-c4nc5c(-c6ccc(F)s6)nccc5[nH]4)c3c2)c1` [Compound 314, N-(5-(3-(4-(5-Fluorothiophen-2-yl)-1H-imidazo[4,5-c]pyridin-2-yl)-1H-pyrazolo[3,4-b]pyridin-5-yl)pyridin-3-yl)-3-methylbutanamide] came in with an EC50 in experiment [1] of 9 nM. In experiment [2], this compound had an IC50 of 6.3 nM.

On to `CC(C)(C)C(=O)Nc1cncc(-c2cnc3[nH]nc(-c4nc5c(-c6ccc(F)s6)nccc5[nH]4)c3c2)c1` [Compound 320, N-(5-(3-(4-(5-Fluorothiophen-2-yl)-1H-imidazo[4,5-c]pyridin-2-yl)-1H-pyrazolo[3,4-b]pyridin-5-yl)pyridin-3-yl)pivalamide], for which the EC50 in experiment [1] amounted to 9 nM. The compound also displayed a half-inhibitory concentration (IC50) in experiment [2] of 9.3 nM.

`Cc1ccc(-c2nccc3[nH]c(-c4n[nH]c5ncc(-c6cncc(NC(=O)C(C)C)c6)cc45)nc23)s1` [Compound 347, N-(5-(3-(4-(5-Methylthiophen-2-yl)-1H-imidazo[4,5-c]pyridin-2-yl)-1H-pyrazolo[3,4-b]pyridin-5-yl)pyridin-3-yl)isobutyramide]: it took 633 nM to reach a half-maximal effect in experiment [1] (EC50). Also, 20.8 nM corresponded to half-maximal inhibition in experiment [2] (IC50).

`Cc1ccc(-c2nccc3[nH]c(-c4n[nH]c5ncc(-c6cncc(CN7CCCCC7)c6)cc45)nc23)s1` [Compound 353, 3-(4-(5-Methylthiophen-2-yl)-1H-imidazo[4,5-c]pyridin-2-yl)-5-(5-(piperidin-1-ylmethyl)pyridin-3-yl)-1H-pyrazolo[3,4-b]pyridine]: a half-maximal response in experiment [1] (EC50) required 9 nM. Moreover, the IC50 in experiment [2] was determined as 576 nM.

For the compound `Cc1ccc(-c2nccc3[nH]c(-c4n[nH]c5ncc(-c6cncc(NC(=O)C7CCCC7)c6)cc45)nc23)s1` [Compound 359, N-(5-(3-(4-(5-Methylthiophen-2-yl)-1H-imidazo[4,5-c]pyridin-2-yl)-1H-pyrazolo[3,4-b]pyridin-5-yl)pyridin-3-yl)cyclopentanecarboxamide], it took 4850 nM to reach a half-maximal effect in experiment [1] (EC50). Besides, the IC50 in experiment [2] was 29.9 nM.

Compound `CC(=O)c1ccc(-c2nccc3[nH]c(-c4n[nH]c5ncc(-c6cncc(NC(=O)Cc7ccccc7)c6)cc45)nc23)s1` [Compound 374, N-(5-(3-(4-(5-Acetylthiophen-2-yl)-1H-imidazo[4,5-c]pyridin-2-yl)-1H-pyrazolo[3,4-b]pyridin-5-yl)pyridin-3-yl)-2-phenylacetamide] showed an EC50 in experiment [1] of 427 nM. In experiment [2], the IC50 is > 10000 nM.

On to `CC(=O)c1ccc(-c2nccc3[nH]c(-c4n[nH]c5ncc(-c6cncc(NC(=O)C7CCCCC7)c6)cc45)nc23)s1` [Compound 386, N-(5-(3-(4-(5-Acetylthiophen-2-yl)-1H-imidazo[4,5-c]pyridin-2-yl)-1H-pyrazolo[3,4-b]pyridin-5-yl)pyridin-3-yl)cyclohexanecarboxamide], for which it took 53 nM to reach a half-maximal effect in experiment [1] (EC50). This compound registered an IC50 in experiment [2] of 188 nM.

Regarding `CS(=O)(=O)NCc1cc(F)cc(-c2nccc3[nH]c(-c4n[nH]c5ncc(-c6cncc(NC(=O)c7ccccc7)c6)cc45)nc23)c1` [Compound 401, N-(5-(3-(4-(3-Fluoro-5-(methylsulfonamidomethyl)phenyl)-1H-imidazo[4,5-c]pyridin-2-yl)-1H-pyrazolo[3,4-b]pyridin-5-yl)pyridin-3-yl)benzamide], in experiment [1], the EC50 is ≥ 9990 nM. For the same compound, the IC50 in experiment [2] was > 10000 nM.

Regarding `CS(=O)(=O)NCc1cc(F)cc(-c2nccc3[nH]c(-c4n[nH]c5ncc(-c6cncnc6)cc45)nc23)c1` [Compound 416, N-(3-Fluoro-5-(2-(5-(pyrimidin-5-yl)-1H-pyrazolo[3,4-b]pyridin-3-yl)-1H-imidazo[4,5-c]pyridin-4-yl)benzyl)methanesulfonamide], the EC50 in experiment [1] was ≥ 9990 nM. For the same compound, in experiment [2], the IC50 is > 10000 nM.

For `CCCCC(=O)Nc1cncc(-c2cnc3[nH]nc(-c4nc5c(-c6cc(F)cc(NCCN(C)C)c6)nccc5[nH]4)c3c2)c1` [Compound 434, N-(5-(3-(4-(3-((2-(Dimethylamino)ethyl)amino)-5-fluorophenyl)-1H-imidazo[4,5-c]pyridin-2-yl)-1H-pyrazolo[3,4-b]pyridin-5-yl)pyridin-3-yl)pentanamide], in experiment [1], the EC50 was 13 nM. The compound also had an IC50 in experiment [2] of 21.9 nM.
